Measured values published in article PMC12040169 (PLOS Biology, 2025).

Assay: in vitro
Conditions: human, hela cells, % viability

SMILES	viability at 28.5 h, 10 µM [%]
Cc1nc(C)n(CC2CCCCN2Cc2cn3ccccc3c2C#N)n1 (stereo not shown) [CBK306102]	85.1
Cc1nc(C)n(CC2CCCN(Cc3cn4ccccc4c3C#N)C2)n1 (stereo not shown) [CBK306103]	92.6
CN(CC(=O)Nc1ccn(Cc2cccnc2)n1)c1ccc(C#N)cn1 [CBK306105]	87.3
CN(C(=O)c1cccn1C)C1CCN(c2ncnc3ccccc23)CC1 [CBK306110]	91.8
NC(=O)COc1ccc(CNC(=O)CN2CCc3sccc3C2)cc1 [CBK306111]	99.4
Cc1nc(SCCO)c2c(=O)n(C)c(=O)n(CC(C)C)c2n1 [CBK306114]	85.8
CCOc1ccc(CN2CCN(CC(=O)Nc3cc(C)on3)CC2)cc1 [CBK306116]	115
Cc1cccc(NCC2CCN(CC(=O)Nc3cc(C)on3)C2)n1 (stereo not shown) [CBK306118]	90.4
Cc1ccnc(NCC2CCN(CC(=O)Nc3cc(C)no3)C2)c1 (stereo not shown) [CBK306121]	91.3
Cc1cccn2cc(CC(=O)NCCNC(=O)OC(C)(C)C)nc12 [CBK306122]	100
O=C(CCc1ccccc1F)NC1CCc2nccn2C1 (stereo not shown) [CBK306124]	113
CNC(=O)NC(=O)CN1CCC(CNc2ncccc2C#N)C1 (stereo not shown) [CBK306126]	77.4
COC(=O)c1ccc(N2CCN(Cc3nnnn3C3CC3)C(C)C2)cc1 (stereo not shown) [CBK306129]	89.6
Cc1ccc(-c2nn(CCC#N)cc2C(=O)N2CCCCC2)cc1C [CBK306131]	94.4
CCOC(=O)c1cnn2c(O)cc(CN(CC(C)(C)O)C(C)C)nc12 [CBK306133]	93.6
CC(NC(=O)CCc1cnn(C)c1)c1cccc(-n2ccnc2)c1 (stereo not shown) [CBK306139]	97.3
CC(=O)c1ccc(C)cc1OC(=O)C1CCCN(S(C)(=O)=O)C1 (stereo not shown) [CBK306140]	115
O=C(CN1CCCCC1Cn1cccn1)NCc1ccccn1 (stereo not shown) [CBK306146]	84
COc1ccc(CCNC(=O)CN2CCCC2Cn2cccn2)cc1 (stereo not shown) [CBK306147]	92.1
CCOC(=O)c1sc2nc(C(C)N(C)Cc3ccco3)[nH]c(=O)c2c1C (stereo not shown) [CBK306148]	106
CCOC(=O)C1CCCN(C(=O)Cn2c(C)nc3ccccc3c2=O)C1 (stereo not shown) [CBK306150]	77.9
Cc1csc(N2CCN(CC(O)COCc3ccco3)CC2)n1 (stereo not shown) [CBK306151]	98.5
Cc1ccccc1Nc1nc(N)nc(CN2CCCC2)n1 [CBK306152]	102

SMILES	viability at 28.5 h, 10 µM [%]
CCn1cc(CN2CCCN(C(=O)c3cc(Cl)c[nH]3)CC2)cn1 [CBK306153]	90.6
CCc1noc(CN2CCN(c3ccc(C(=O)OC)cc3)CC2C)n1 (stereo not shown) [CBK306154]	86.4
Cc1ccnc2nc(C(=O)OC(C)C(=O)N3CCCCCC3)nn12 (stereo not shown) [CBK306155]	102
CN(C)C(=O)NCCNC(=O)c1c[nH]nc1-c1cc2ccccc2o1 [CBK306157]	85.7
CCNS(=O)(=O)c1ccc2c(c1)N(Cc1ccc(CO)o1)CC2 [CBK306158]	83.8
O=C(NCC1(O)CCSC1)c1c[nH]nc1-c1cc2ccccc2o1 (stereo not shown) [CBK306159]	88.3
CC(CN(C)C(=O)c1c[nH]nn1)Oc1ccc(Cl)c(Cl)c1 (stereo not shown) [CBK306160]	87.5
CC(=O)Nc1cccc(-n2nnnc2SCCCCCF)c1 [CBK306164]	110
Cc1ccc(-c2nnc(NCc3cnn(C)c3C)o2)c(C)c1 [CBK306166]	88.2
CC(c1ncc(Br)cn1)N1CCN(Cc2noc(C(C)(C)C)n2)CC1 (stereo not shown) [CBK306168]	87.4
Cc1n[nH]nc1C(=O)N(C)CC(C)Oc1ccc(Cl)c(Cl)c1 (stereo not shown) [CBK306173]	85.2
Cc1ccc2c(c1)nc(CNC(=O)NCCCO)n2C [CBK306174]	86.1
CC1(C)CCCN(Cc2nnnn2-c2ccc(S(C)(=O)=O)cc2)CC1 [CBK306177]	81.8
CC1(C)CCN(Cc2nnnn2-c2ccc(S(C)(=O)=O)cc2)C1 [CBK306179]	94.7
CN(C)c1ncccc1OC1CCN(c2ccnc(C3CC3)n2)C1 (stereo not shown) [CBK306182]	56.3
CCNS(=O)(=O)c1ccc2c(c1)N(Cc1nc(-c3ccco3)no1)CC2 [CBK306184]	81.1
O=C(Cc1cn2ccsc2n1)Nc1ccc(N2CCCCC2)cc1 [CBK306185]	79
O=C(Nc1cc(Cl)ccc1C(=O)NC1CCC(O)CC1)c1cccs1 (stereo not shown) [CBK306186]	89.2
Cc1ccc2[nH]c(SC(C)C(=O)N3CCOCC3)nc2c1 (stereo not shown) [CBK306187]	96
CCOC(=O)Cc1csc(SCC(=O)N2CCc3ccccc32)n1 [CBK306190]	88.8
N#CCCn1cc(C(=O)N2CCCCC2)c(-c2ccc(F)cc2)n1 [CBK306191]	91.8
N#Cc1ccsc1NC(=O)CN1CCN(c2cccc(Cl)c2)CC1 [CBK306192]	81.1
CC1CCC2(CC1)NC(=O)N(Cc1coc(-c3ccccc3)n1)C2=O (stereo not shown) [CBK306196]	98.3
